Here are results for 2 compounds from patent publication US9550767B2, “Crystalline form of (R)-7-chloro-N-(quinuclidin-3-yl)benzo[b]thiophene-2-carboxamide hydrochloride monohydrate” (Forum Pharmaceuticals, Inc., priority 2010, dated 2017).

Holding throughout (type): physicochemical
Data set [1] in a line: Transformation behavior in 97 v/v % aqueous acetonitrile (XRPD). How it is done: Form X crystals and 97 v/v % aqueous acetonitrile were added to a glass vessel. The mixture was stirred with Teflon-coated magnetic stirrer bar at the temperature controlled with aluminum block. Solid component was sampled periodically and analyzed by XRPD to determine the crystal form.
A short description of data set [2]: Crystallization behavior in 98 v/v % aqueous acetonitrile (XRPD). The settings on record: seeded experiments. The method, then: Form I crystals were added to 98 v/v % aqueous acetonitrile in a glass vessel. Next, 98 v/v % aqueous acetonitrile was added to make the mixture 40 v/w times relative to the Form I crystal. The mixture was stirred with Teflon-coated magnetic stirrer bar and heated to 80° C. with aluminum block. After the crystals were dissolved, the mixture was cooled to a determined temperature at the rate of 30° C. per hour. After a determined holding time, Form I crystals were added as seed crystals according to object of an experiment. Precipitates were sampled periodically and analyzed by XRPD.

Data set [3] in a line: Stability under photo storage conditions. The settings on record: light (D65 lamp) of 1.2 million Lux hours at 25° C. An excerpt:
(§1) The crystalline Forms I and II are very stable in many aspects. Both forms are stable under storage conditions. […] Both forms are also stable under physical stress. The XRD charts of both forms were not changed after compression experiments with a planar pestle (1000 kgf/cm^2).

Data set [4] can be described thus: Stability under physical stress (compression with planar pestle, XRD). As to conditions: 1000 kgf/cm^2.
Text: as §1

Data set [5] in a line: Stability under storage conditions (temperature/humidity). As to conditions: 11% RH at 40° C., 75% RH at 40° C., 11% RH at 60° C. and 75% RH at 60° C. after 2 weeks.
Text: as §1

Data set [6] is described as follows: Hygroscopicity (DVS-1). As to conditions: between 10% RH and 90% RH at 25° C.; for Hygroscopicity: hydrochloride monohydrate. The method, then:
The hygroscopicity of Forms I and II were investigated using a Surface measurement systems, DVS-1, between 10% RH and 90% RH at 25° C.

Data set [7] is described as follows: Transformation behavior in 98 v/v % aqueous acetonitrile (seeded slurry, XRPD). How it is done: Form I crystals and 40 v/w times volume of 98 v/v % aqueous acetonitrile were added to a glass vessel. The mixture was stirred with Teflon-coated magnetic stirrer bar and heated to 80° C. with aluminum block. After dissolved, solution was cooled to 5° C. at the rate of 30° C. per hour. To the slurry of Form X, 10 w/w % of Form I crystals were added as seed crystals at 5° C., then controlled to a certain temperature. Samples of solid material were analyzed by XRPD on a periodic basis.

A short description of data set [8]: Solubility measurements of Forms I and II in aqueous acetonitrile (HPLC, equilibrium plateau). The settings on record: for solubility: aqueous acetonitrile; for Thermodynamic relationship between forms I and II crystals: based on solubility measurements in aqueous acetonitrile. How it is done: Solubility of Forms I and II was measured at various temperatures between 5° C. and 45° C. in aqueous acetonitrile in which water concentration was from 0 to 10 v/v % respectively.
Solubility was measured according to the following procedure. Form I or II crystals and an aqueous acetonitrile were added to a glass vessel. The mixture was stirred with a Teflon-coated magnetic stirrer bar at a defined temperature controlled with aluminum block. The liquid phase was sampled periodically, and the concentration of the compound was measured with high performance liquid chromatography (HPLC). Solid material was also collected at the same time to identify the crystal form using XRPD. In analyzing the time course of the change in concentration, that plateau zone was identified as an equilibrium condition, and the mean value of these concentrations was defined as “solubility” under that condition.

Data set [9] in a line: Solubility in water (shaking 20 minutes, HPLC UV 210 nm). The settings on record: for solubility at 20 min: thermodynamic from solid; for Solubility in water: hydrochloride monohydrate. The method, then:
Excess amount of the samples, Forms I and II, were suspended in water, and were equilibrated by shaking for 20 minutes at 25° C. or 37° C., respectively. The amounts of dissolved the compound were determined using a Waters alliance HPLC system 2695, detected by UV 210 nm.

Counter-ions that a name gives are not always drawn. Like-named read-outs stand apart in the source and are kept apart here.

`O=C(N[C@H]1CN2CCC1CC2)c1cc2cccc(Cl)c2s1` [Form I, (R)-7-chloro-N-(quinuclidin-3-yl)benzo[b]thiophene-2-carboxamide hydrochloride monohydrate]: the “Relative stability of Form I versus Form X” value in data set [1], in [2] and in [7] was “more stable than Form X regardless of temperature” each time. In data set [3], the “Degradation products under photo storage conditions” value was “no degradation products”. For the same compound, the “XRD chart after compression” value in [4] was “not changed”. For the same compound, the “Degradation products under storage conditions” value in data set [5] was “No degradation products”. Moreover, in data set [6], the Hygroscopicity entry is given as “no hygroscopicity”. The solubility in data set [8] (5 °C, organic solvent or mixture, thermodynamic from solid, water concentration 0 v/v %, 5 °C, read-out: Solubility) turned out to be 1 mg/mL; in data set [8] (5 °C, organic solvent or mixture, thermodynamic from solid, water concentration 2 v/v %, 5 °C, read-out: Solubility), 2.4 mg/mL; in [8] (5 °C, organic solvent or mixture, thermodynamic from solid, water concentration 6 v/v %, 5 °C, read-out: Solubility), 12.8 mg/mL; in data set [8] (12.5 °C, organic solvent or mixture, thermodynamic from solid, water concentration 3.5 v/v %, 12.5 °C, read-out: Solubility), 5.4 mg/mL; in data set [8] (12.5 °C, organic solvent or mixture, thermodynamic from solid, water concentration 8.5 v/v %, 12.5 °C, read-out: Solubility) it was 27.6 mg/mL; in data set [8] (25 °C, organic solvent or mixture, thermodynamic from solid, water concentration 0 v/v %, 25 °C, read-out: Solubility), 1.3 mg/mL. The solubility in [8] (25 °C, organic solvent or mixture, thermodynamic from solid, water concentration 2 v/v %, 25 °C, read-out: Solubility) turned out to be 4.1 mg/mL; in data set [8] (25 °C, organic solvent or mixture, thermodynamic from solid, water concentration 6 v/v %, 25 °C, read-out: Solubility), 17.1 mg/mL; in data set [8] (25 °C, organic solvent or mixture, thermodynamic from solid, water concentration 10 v/v %, 25 °C, read-out: Solubility), 47.5 mg/mL; in data set [8] (37.5 °C, organic solvent or mixture, thermodynamic from solid, water concentration 3.5 v/v %, 37.5 °C, read-out: Solubility), 10 mg/mL; in [8] (37.5 °C, organic solvent or mixture, thermodynamic from solid, water concentration 8.5 v/v %, 37.5 °C, read-out: Solubility) it was 44.4 mg/mL; in data set [8] (45 °C, organic solvent or mixture, thermodynamic from solid, water concentration 2 v/v %, 45 °C, read-out: Solubility), 8.7 mg/mL. Besides, the solubility in [8] (45 °C, organic solvent or mixture, thermodynamic from solid, water concentration 6 v/v %, 45 °C, read-out: Solubility) turned out to be 27.2 mg/mL; in data set [8] (45 °C, organic solvent or mixture, thermodynamic from solid, water concentration 10 v/v %, 45 °C, read-out: Solubility), 71.6 mg/mL. Further, the “Thermodynamic relationship between forms I and II crystals” value in data set [8] is reported as “enantiotropy”. Moreover, the solubility at 20 min in [9] (25 °C) was determined as 39 mg/mL; in [9] (37 °C), 90 mg/mL.

As to `O=C(N[C@H]1CN2CCC1CC2)c1cc2cccc(Cl)c2s1` [Form II, (R)-7-chloro-N-(quinuclidin-3-yl)benzo[b]thiophene-2-carboxamide hydrochloride monohydrate], the “Degradation products under photo storage conditions” value in [3] is recorded as “no degradation products”. Further, the “XRD chart after compression” value in data set [4] was “not changed”. Moreover, in data set [5], the “Degradation products under storage conditions” value is “No degradation products”. Also, the “Channel water absorbed and desorbed” value in data set [6] is recorded as “ca. 1 mol”. The “Water value increased and decreased by absorption and desorption” value in data set [6] is given as “approximately 4%”. In addition, in data set [6], the Hygroscopicity result is “there was a hygroscopicity”. Moreover, the solubility in [8] (5 °C, organic solvent or mixture, thermodynamic from solid, water concentration 10 v/v %, 5 °C, read-out: Solubility) was determined as 29.7 mg/mL; in [8] (water concentration 2 v/v %, 5 °C, hydrochloride monohydrate), 2.6; in data set [8] (water concentration 2 v/v %, 25 °C, hydrochloride monohydrate), 4.7; in data set [8] (water concentration 3.5 v/v %, 12.5 °C, hydrochloride monohydrate) it was 5.7; in [8] (water concentration 6 v/v %, 5 °C, hydrochloride monohydrate), 11.2; in [8] (water concentration 6 v/v %, 25 °C, hydrochloride monohydrate), 16.7. The solubility was determined as 29.6 in [8] (water concentration 6 v/v %, 45 °C, hydrochloride monohydrate); 25.1 in data set [8] (water concentration 8.5 v/v %, 12.5 °C, hydrochloride monohydrate); 44.4 in data set [8] (water concentration 8.5 v/v %, 37.5 °C); 44.6 in data set [8] (water concentration 10 v/v %, 25 °C, hydrochloride monohydrate); 74.5 in data set [8] (water concentration 10 v/v %, 45 °C, hydrochloride monohydrate). Moreover, the “Thermodynamic relationship between forms I and II crystals” value in data set [8] was “enantiotropy”. In addition, the figures for the Solubility in water in data set [9] (25° C.) and in data set [9] (37° C.) were 30 mg/mL and 54 mg/mL, respectively.
